Here are results for 16 compounds from patent US12226424B2, “Target protein degradation compounds, their anti-tumor use, their intermediates and use of intermediates” (ShanghaiTech University, priority 2018, dated 2025).

The structures appear in SMILES notation. A value given as a limit tells only on which side of the number the result lay.

One experiment addresses BCR-ABL (Homo sapiens, UniProt P00519). In words: Western-blot half-degradation concentration (DC50) / degradation of BCR-ABL in K562 cells. The conditions noted are these: read-out: DC50 (nM)/K562 cell line, BCR-ABL protein degradation, 24 hours, Western-blot.
Experiment [1] relates to K562 cells (BCR-ABL positive). In words: Half inhibitory concentration (IC50) on tumor cells, CCK-8, K562. Particulars: Homo sapiens, K562, 48 h, read-out: IC50 (nM)/K562 cell line.
Experiment [2] has as its target T1, ALK protein (Homo sapiens, UniProt Q9UM73). In words: Western-blot half degradation concentration (DC50) of ALK protein in H3122 cells. The conditions noted are these: 24 h drug treatment, read-out: DC50 (nM)/ H3122 cell line. The class given is cell-based. The protocol:
(§1) ALK-positive SR cells (human large cell immunoblastic lymphoma) were purchased from the American Type Culture Collection (ATCC); H3122 cells (human non-small cell lung cancer) were from the Shanghai University of Science and Technology Lin Haifan's research group.
(§2) The cells used in this present disclosure were cultured in a 37° C. incubator containing 5% CO2.
(§3) DC50 (drug concentration corresponding to protein degradation to 50%) calculation: according to the gray value of the corresponding Western blotting band after drug treatment, fitting the relationship curve between drug concentration and gray value to calculate the drug concentration range corresponding to half of the gray value.
Target sequence in this assay (Q9UM73 with tags, fused parts or gaps): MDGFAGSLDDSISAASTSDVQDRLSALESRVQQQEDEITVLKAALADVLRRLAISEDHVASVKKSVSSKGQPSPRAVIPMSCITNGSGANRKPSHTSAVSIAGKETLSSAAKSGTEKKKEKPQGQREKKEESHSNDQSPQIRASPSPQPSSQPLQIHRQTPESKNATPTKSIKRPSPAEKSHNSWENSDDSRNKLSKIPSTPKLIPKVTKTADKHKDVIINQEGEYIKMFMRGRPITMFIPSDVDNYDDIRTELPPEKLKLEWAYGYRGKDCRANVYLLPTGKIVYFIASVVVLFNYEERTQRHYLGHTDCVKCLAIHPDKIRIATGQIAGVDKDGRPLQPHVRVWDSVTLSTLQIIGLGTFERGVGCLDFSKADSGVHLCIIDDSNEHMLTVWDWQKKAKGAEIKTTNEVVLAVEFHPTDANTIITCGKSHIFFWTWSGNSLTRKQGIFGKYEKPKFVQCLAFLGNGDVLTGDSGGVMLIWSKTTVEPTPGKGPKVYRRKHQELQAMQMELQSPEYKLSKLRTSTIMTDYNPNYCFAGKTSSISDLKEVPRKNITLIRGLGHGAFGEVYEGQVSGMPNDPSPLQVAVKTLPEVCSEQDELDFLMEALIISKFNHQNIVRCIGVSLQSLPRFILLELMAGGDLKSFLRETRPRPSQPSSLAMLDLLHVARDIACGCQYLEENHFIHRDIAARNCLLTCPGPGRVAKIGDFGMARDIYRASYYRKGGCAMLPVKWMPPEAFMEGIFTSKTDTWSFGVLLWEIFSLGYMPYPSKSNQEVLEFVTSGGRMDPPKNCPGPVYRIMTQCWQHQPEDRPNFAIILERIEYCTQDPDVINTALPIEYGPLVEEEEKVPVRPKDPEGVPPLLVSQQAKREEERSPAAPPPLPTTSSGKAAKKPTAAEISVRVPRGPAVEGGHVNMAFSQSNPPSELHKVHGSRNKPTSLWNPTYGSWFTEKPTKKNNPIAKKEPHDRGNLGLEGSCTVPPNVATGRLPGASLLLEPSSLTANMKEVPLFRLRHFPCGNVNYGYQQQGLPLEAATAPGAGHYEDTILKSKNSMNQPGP

In a further experiment the test system is SR cells. In words: Half inhibitory concentration (IC50) on ALK-positive SR cell proliferation (CCK-8). The class given is cell-based. Particulars: Homo sapiens; SR cells, 72 h drug treatment, CCK-8; read-out: IC50 (nM)/ SR cell line. The gist of the method:
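SR cells seeded at 10,000 cells/well in RPMI1640 and treated with PROTAD compounds at 10 concentrations (top 10 μM, 5-fold dilutions) for 72 h at 37° C, 5% CO2. Viability read by CCK-8 (2 h) at OD450; DMSO as negative control.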

The target in experiment [3] is T1, ALK protein. As to the kind of experiment: Western-blot half degradation concentration (DC50) of ALK protein in SR cells. The class given is cell-based. The conditions noted are these: 24 h drug treatment; for DC50: read-out: DC50 (nM)/ SR cell line. The protocol:
as §1, §2, §3
Target sequence in this assay (Q9UM73 with tags, fused parts or gaps): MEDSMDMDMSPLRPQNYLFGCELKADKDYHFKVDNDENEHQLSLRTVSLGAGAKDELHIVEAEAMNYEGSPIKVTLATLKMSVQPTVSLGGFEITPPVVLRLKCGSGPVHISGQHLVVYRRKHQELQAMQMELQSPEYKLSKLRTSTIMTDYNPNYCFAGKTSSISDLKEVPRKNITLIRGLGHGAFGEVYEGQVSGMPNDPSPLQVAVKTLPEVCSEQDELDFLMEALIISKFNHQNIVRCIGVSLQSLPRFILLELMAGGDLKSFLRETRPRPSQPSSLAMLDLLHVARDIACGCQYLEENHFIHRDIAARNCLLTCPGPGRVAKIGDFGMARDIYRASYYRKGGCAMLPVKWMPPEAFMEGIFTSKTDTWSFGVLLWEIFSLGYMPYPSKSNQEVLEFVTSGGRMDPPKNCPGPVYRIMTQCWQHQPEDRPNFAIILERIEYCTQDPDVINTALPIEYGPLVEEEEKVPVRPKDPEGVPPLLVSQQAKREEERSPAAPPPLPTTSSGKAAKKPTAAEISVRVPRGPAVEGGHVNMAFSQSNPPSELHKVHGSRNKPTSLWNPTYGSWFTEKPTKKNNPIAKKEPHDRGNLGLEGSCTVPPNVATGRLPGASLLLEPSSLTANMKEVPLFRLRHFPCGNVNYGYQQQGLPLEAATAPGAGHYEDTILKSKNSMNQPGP

BCR-ABL, sequence (P00519 with tags, fused parts or gaps): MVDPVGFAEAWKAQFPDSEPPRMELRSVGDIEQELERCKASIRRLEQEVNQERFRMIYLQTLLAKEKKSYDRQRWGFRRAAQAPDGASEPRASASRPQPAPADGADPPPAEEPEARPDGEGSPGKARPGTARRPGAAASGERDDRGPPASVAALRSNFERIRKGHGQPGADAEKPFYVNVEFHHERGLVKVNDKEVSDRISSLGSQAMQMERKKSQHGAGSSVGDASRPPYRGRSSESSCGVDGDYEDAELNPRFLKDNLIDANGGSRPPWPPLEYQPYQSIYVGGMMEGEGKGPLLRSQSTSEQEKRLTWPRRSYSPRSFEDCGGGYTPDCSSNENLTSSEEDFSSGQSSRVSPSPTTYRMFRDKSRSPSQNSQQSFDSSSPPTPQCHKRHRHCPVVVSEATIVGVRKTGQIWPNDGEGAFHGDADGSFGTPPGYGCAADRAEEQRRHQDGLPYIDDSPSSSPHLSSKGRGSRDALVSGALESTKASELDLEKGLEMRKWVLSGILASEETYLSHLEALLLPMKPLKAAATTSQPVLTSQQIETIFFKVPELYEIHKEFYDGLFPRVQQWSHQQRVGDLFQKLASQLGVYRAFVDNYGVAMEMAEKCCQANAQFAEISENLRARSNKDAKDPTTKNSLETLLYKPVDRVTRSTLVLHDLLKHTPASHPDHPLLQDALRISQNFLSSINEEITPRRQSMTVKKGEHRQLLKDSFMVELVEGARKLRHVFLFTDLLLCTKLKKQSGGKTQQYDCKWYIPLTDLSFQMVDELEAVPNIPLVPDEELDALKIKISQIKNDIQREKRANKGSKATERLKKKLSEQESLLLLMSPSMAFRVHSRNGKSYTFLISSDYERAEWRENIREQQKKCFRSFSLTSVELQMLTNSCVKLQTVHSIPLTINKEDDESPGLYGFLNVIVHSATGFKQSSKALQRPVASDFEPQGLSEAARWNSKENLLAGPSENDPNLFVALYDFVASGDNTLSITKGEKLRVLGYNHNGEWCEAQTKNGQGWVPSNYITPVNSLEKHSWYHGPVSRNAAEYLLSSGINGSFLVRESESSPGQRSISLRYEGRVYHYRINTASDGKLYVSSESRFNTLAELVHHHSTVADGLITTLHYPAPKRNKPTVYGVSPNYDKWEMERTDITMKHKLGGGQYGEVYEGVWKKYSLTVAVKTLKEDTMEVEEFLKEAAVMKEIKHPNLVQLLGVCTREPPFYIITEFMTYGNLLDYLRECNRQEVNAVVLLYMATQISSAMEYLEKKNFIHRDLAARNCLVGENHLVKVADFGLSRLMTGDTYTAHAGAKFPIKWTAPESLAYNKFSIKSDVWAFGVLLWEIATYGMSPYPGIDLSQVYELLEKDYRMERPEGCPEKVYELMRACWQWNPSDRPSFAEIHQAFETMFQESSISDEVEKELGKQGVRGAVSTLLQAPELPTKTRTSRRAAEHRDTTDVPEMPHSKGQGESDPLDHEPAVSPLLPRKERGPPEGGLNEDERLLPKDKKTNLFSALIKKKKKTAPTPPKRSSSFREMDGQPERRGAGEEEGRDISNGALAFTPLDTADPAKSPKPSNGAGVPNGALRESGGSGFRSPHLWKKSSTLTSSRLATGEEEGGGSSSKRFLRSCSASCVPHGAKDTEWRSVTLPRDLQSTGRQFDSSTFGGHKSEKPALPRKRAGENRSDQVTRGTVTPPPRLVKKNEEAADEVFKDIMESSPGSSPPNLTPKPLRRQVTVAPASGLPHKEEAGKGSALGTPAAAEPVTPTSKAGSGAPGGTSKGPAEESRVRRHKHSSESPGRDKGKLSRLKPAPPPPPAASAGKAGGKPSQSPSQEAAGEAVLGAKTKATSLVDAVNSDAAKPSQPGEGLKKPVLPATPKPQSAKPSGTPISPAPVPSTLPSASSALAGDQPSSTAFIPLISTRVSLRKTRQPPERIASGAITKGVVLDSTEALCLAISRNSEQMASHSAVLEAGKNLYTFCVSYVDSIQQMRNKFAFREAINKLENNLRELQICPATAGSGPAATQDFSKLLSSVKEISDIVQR

In the case of `Cc1nc(Nc2ncc(C(=O)Nc3c(C)cccc3Cl)s2)cc(N2CCN(C(=O)CCCSc3cccc4c3C(=O)N(C3CCC(=O)NC3=O)C4=O)CC2)n1` (stereo not shown) [SIAIS151153, N-(2-chloro-6-methylphenyl)-2-((6-(4-(4-((2-(2,6-dioxopiperidin-3-yl)-1,3-dioxoisoindolin-4-yl)thio)butanoyl)piperazin-1-yl)-2-methylpyrimidin-4-yl)amino)thiazole-5-carboxamide], at BCR-ABL, the DC50 turned out to be 20.7 nM. Moreover, the IC50 in experiment [1] came to 15 nM.

Take `COc1cc(N2CCC(N3CCN(C(=O)CCCCCCSc4cccc5c4C(=O)N(C4CCC(=O)NC4=O)C5=O)CC3)CC2)ccc1Nc1ncc(Cl)c(Nc2ccccc2P(C)(C)=O)n1` (stereo not shown) [SIAIS164067, 4-((7-(4-(1-(4-((5-chloro-4-((2-(dimethylphosphoryl)phenyl)amino)pyrimidin-2-yl)amino)-3-methoxyphenyl)piperidin-4-yl)piperazin-1-yl)-7-oxoheptyl)thio)-2-(2,6-dioxopiperidin-3-yl)isoindoline-1,3-dione]: the DC50 on ALK protein [2] was determined as 11 nM; on ALK protein [3], 4.1 nM. In addition, the IC50 in the experiment on SR cells is 5.7 ± 3.9 nM.

`COc1cc(N2CCC(N3CCN(C(=O)CCCCCCSc4cccc5c4CN(C4CCC(=O)NC4=O)C5=O)CC3)CC2)ccc1Nc1ncc(Cl)c(Nc2ccccc2P(C)(C)=O)n1` (stereo not shown) [SIAIS219072, 3-(4-((7-(4-(1-(4-((5-chloro-4-((2-(dimethylphosphoryl)phenyl)amino)pyrimidin-2-yl)amino)-3-methoxyphenyl)piperidin-4-yl)piperazin-1-yl)-7-oxoheptyl)thio)-1-oxoisoindolin-2-yl)piperidine-2,6-dione]: the IC50 in the experiment on SR cells was 0.8 ± 0.5 nM. On ALK protein [3], the DC50 lay in the range of 0.1 to 10 nM.

Take `COc1cc(N2CCC(N3CCN(C(=O)CCSc4cccc5c4C(=O)N(C4CCC(=O)NC4=O)C5=O)CC3)CC2)ccc1Nc1ncc(Cl)c(Nc2ccccc2P(C)(C)=O)n1` (stereo not shown) [SIAIS164063, 4-((3-(4-(1-(4-((5-chloro-4-((2-(dimethylphosphoryl)phenyl)amino)pyrimidin-2-yl)amino)-3-methoxyphenyl)piperidin-4-yl)piperazin-1-yl)-3-oxopropyl)thio)-2-(2,6-dioxopiperidin-3-yl)isoindoline-1,3-dione]: the DC50 on ALK protein [2] and on ALK protein [3] was 500 nM throughout. Moreover, the IC50 in the experiment on SR cells was determined as 15.7 ± 9.8 nM.

Take `COc1cc(N2CCC(N3CCN(C(=O)CCSc4cccc5c4CN(C4CCC(=O)NC4=O)C5=O)CC3)CC2)ccc1Nc1ncc(Cl)c(Nc2ccccc2P(C)(C)=O)n1` (stereo not shown) [SIAIS219068, 3-(4-((3-(4-(1-(4-((5-chloro-4-((2-(dimethylphosphoryl)phenyl)amino)pyrimidin-2-yl)amino)-3-methoxyphenyl)piperidin-4-yl)piperazin-1-yl)-3-oxopropyl)thio)-1-oxoisoindolin-2-yl)piperidine-2,6-dione]: the IC50 in the experiment on SR cells amounted to 1.7 ± 0.8 nM. At ALK protein [3], the DC50 lay within 1 to 10 nM.

`Cc1nc(Nc2ncc(C(=O)Nc3c(C)cccc3Cl)s2)cc(N2CCN(C(=O)CCCCCCSc3cccc4c3C(=O)N(C3CCC(=O)NC3=O)C4=O)CC2)n1` (stereo not shown) [SIAIS151156, N-(2-chloro-6-methylphenyl)-2-((6-(4-(7-((2-(2,6-dioxopiperidin-3-yl)-1,3-dioxoisoindolin-4-yl)thio)heptanoyl)piperazin-1-yl)-2-methylpyrimidin-4-yl)amino)thiazole-5-carboxamide]: the DC50 on BCR-ABL was 2.9 nM. The IC50 in experiment [1] came out at 6.63 nM.

Take `Cc1nc(Nc2ncc(C(=O)Nc3c(C)cccc3Cl)s2)cc(N2CCN(CCCSc3cccc4c3C(=O)N(C3CCC(=O)NC3=O)C4=O)CC2)n1` (stereo not shown) [SIAIS172106, N-(2-chloro-6-methylphenyl)-2-((6-(4-(3-((2-(2,6-dioxopiperidin-3-yl)-1,3-dioxoisoindolin-4-yl)thio)propyl)piperazin-1-yl)-2-methylpyrimidin-4-yl)amino)thiazole-5-carboxamide]: at BCR-ABL, the DC50 was < 3 nM. For the same compound, in experiment [1], the IC50 was 0.83 nM.

In the case of `COc1cc(N2CCC(N3CCN(CCCCCCSc4cccc5c4CN(C4CCC(=O)NC4=O)C5=O)CC3)CC2)ccc1Nc1ncc(Cl)c(Nc2ccccc2P(C)(C)=O)n1` (stereo not shown) [SIAIS219098, 3-(4-((6-(4-(1-(4-((5-chloro-4-((2-(dimethylphosphoryl)phenyl)amino)pyrimidin-2-yl)amino)-3-methoxyphenyl)piperidin-4-yl)piperazin-1-yl)hexyl)thio)-1-oxoisoindolin-2-yl)piperidine-2,6-dione], the IC50 in the experiment with SR cells came out at 0.7 ± 0.2 nM. Further, the DC50 on ALK protein [3] lay in the range of 0.1 to 1 nM.

Regarding `COc1cc(N2CCC(N3CCN(C(=O)CCCCCSc4cccc5c4CN(C4CCC(=O)NC4=O)C5=O)CC3)CC2)ccc1Nc1ncc(Cl)c(Nc2ccccc2P(C)(C)=O)n1` (stereo not shown) [SIAIS219071, 3-(4-((6-(4-(1-(4-((5-chloro-4-((2-(dimethylphosphoryl)phenyl)amino)pyrimidin-2-yl)amino)-3-methoxyphenyl)piperidin-4-yl)piperazin-1-yl)-6-oxohexyl)thio)-1-oxoisoindolin-2-yl)piperidine-2,6-dione], the IC50 in the experiment with SR cells worked out at 0.6 ± 0.4 nM. In addition, at ALK protein [3], the “DC50 (nM)/ SR cell line” value is 0.01~10 nM.

In the case of `COc1cc(N2CCC(N3CCN(C(=O)CCCCSc4cccc5c4CN(C4CCC(=O)NC4=O)C5=O)CC3)CC2)ccc1Nc1ncc(Cl)c(Nc2ccccc2P(C)(C)=O)n1` (stereo not shown) [SIAIS219070, 3-(4-((5-(4-(1-(4-((5-chloro-4-((2-(dimethylphosphoryl)phenyl)amino)pyrimidin-2-yl)amino)-3-methoxyphenyl)piperidin-4-yl)piperazin-1-yl)-5-oxopentyl)thio)-1-oxoisoindolin-2-yl)piperidine-2,6-dione], in the experiment with SR cells, the IC50 was determined as 0.5 ± 0.3 nM. The DC50 at ALK protein [3] fell in the range of 0.1 to 10 nM.

On to `COc1cc(N2CCC(N3CCN(C(=O)CCCSc4cccc5c4CN(C4CCC(=O)NC4=O)C5=O)CC3)CC2)ccc1Nc1ncc(Cl)c(Nc2ccccc2P(C)(C)=O)n1` (stereo not shown) [SIAIS219069, 3-(4-((4-(4-(1-(4-((5-chloro-4-((2-(dimethylphosphoryl)phenyl)amino)pyrimidin-2-yl)amino)-3-methoxyphenyl)piperidin-4-yl)piperazin-1-yl)-4-oxobutyl)thio)-1-oxoisoindolin-2-yl)piperidine-2,6-dione], for which, in the experiment with SR cells, the IC50 turned out to be 0.7 ± 0.3 nM. For the same compound, at ALK protein [3], the DC50 fell in the range of 0.1 to 10 nM.

In the case of `Cc1nc(Nc2ncc(C(=O)Nc3c(C)cccc3Cl)s2)cc(N2CCN(C(=O)CCCCCSc3cccc4c3C(=O)N(C3CCC(=O)NC3=O)C4=O)CC2)n1` (stereo not shown) [SIAIS151155, N-(2-chloro-6-methylphenyl)-2-((6-(4-(6-((2-(2,6-dioxopiperidin-3-yl)-1,3-dioxoisoindolin-4-yl)thio)hexanoyl)piperazin-1-yl)-2-methylpyrimidin-4-yl)amino)thiazole-5-carboxamide], at BCR-ABL, the DC50 was found to be 0.8 nM. Also, the IC50 in experiment [1] is 8.66 nM.

Regarding `COc1cc(N2CCC(N3CCN(C(=O)CSc4cccc5c4CN(C4CCC(=O)NC4=O)C5=O)CC3)CC2)ccc1Nc1ncc(Cl)c(Nc2ccccc2P(C)(C)=O)n1` (stereo not shown) [SIAIS219067, 3-(4-((2-(4-(1-(4-((5-chloro-4-((2-(dimethylphosphoryl)phenyl)amino)pyrimidin-2-yl)amino)-3-methoxyphenyl)piperidin-4-yl)piperazin-1-yl)-2-oxoethyl)thio)-1-oxoisoindolin-2-yl)piperidine-2,6-dione], in the experiment with SR cells, the IC50 came out at 2.4 ± 1.4 nM. Also, at ALK protein [3], the DC50 is 0.1 to 10 nM.

As to `Cc1nc(Nc2ncc(C(=O)Nc3c(C)cccc3Cl)s2)cc(N2CCN(C(=O)CCCCSc3cccc4c3C(=O)N(C3CCC(=O)NC3=O)C4=O)CC2)n1` (stereo not shown) [SIAIS151154, N-(2-chloro-6-methylphenyl)-2-((6-(4-(5-((2-(2,6-dioxopiperidin-3-yl)-1,3-dioxoisoindolin-4-yl)thio)pentanoyl)piperazin-1-yl)-2-methylpyrimidin-4-yl)amino)thiazole-5-carboxamide], on BCR-ABL, the DC50 turned out to be 2 nM. In experiment [1], the IC50 came out at 5.74 nM.

In the case of `Cc1nc(Nc2ncc(C(=O)Nc3c(C)cccc3Cl)s2)cc(N2CCN(C(=O)CCSc3cccc4c3C(=O)N(C3CCC(=O)NC3=O)C4=O)CC2)n1` (stereo not shown) [SIAIS151152, N-(2-chloro-6-methylphenyl)-2-((6-(4-(3-((2-(2,6-dioxopiperidin-3-yl)-1,3-dioxoisoindolin-4-yl)thio)propanoyl)piperazin-1-yl)-2-methylpyrimidin-4-yl)amino)thiazole-5-carboxamide], at BCR-ABL, the DC50 is < 1 nM. In experiment [1], the IC50 came out at 11.1 nM.

For `Cc1nc(Nc2ncc(C(=O)Nc3c(C)cccc3Cl)s2)cc(N2CCN(CCSc3cccc4c3CN(C3CCC(=O)NC3=O)C4=O)CC2)n1` (stereo not shown) [SIAIS171166, N-(2-chloro-6-methylphenyl)-2-((6-(4-(2-((2-(2,6-dioxopiperidin-3-yl)-1-oxoisoindolin-4-yl)thio)ethyl)piperazin-1-yl)-2-methylpyrimidin-4-yl)amino)thiazole-5-carboxamide], the DC50 on BCR-ABL is < 1 nM. Besides, the IC50 in experiment [1] came to 0.51 nM.
